Data as given in patent US20180228703A1, “Improved Hyaluronan and Modified-Hyaluronan in Biomedical Applications” (CHL Industries, LLC, priority 2015, published 2018).

Tests used:
[1] = tested on: non-soluble type I collagen; experiment: Non-soluble type I collagen production by HDF, direct ELISA; type: cell-based, human; conditions: for % CTRL (COL-I): 4 days, vs water; for % CTRL (Cell # Standardized): non-soluble collagen I standardized to cell numbers; for Cell # Standardized: repeat testing, type I collagen deposition, H2O = 100
Method: Adult human dermal fibroblasts (Cell Applications, San Diego, Calif.) were plated in DMEM without phenyl red supplemented with 5% FBS and 1% penicillin/streptomycin (PS) at a concentration of 8,000 cells/well. Test materials, which were stored at 4° C. until dissolved at 20 mg/ml in ddH2O, were added the next day on attached exponentially-growing cells.
Cells were then fixed with 2.5% trichloroacetic acid (TCA) at 4° C., dried overnight, and tested for non-soluble type I collagen, using direct ELISA.
(§1) Cells proliferation was quantified by staining cytoskeletons with sulforhodamine B according to the colorimetric method of Voigt, “Sulforhodamine B assay and chemosensitivity,” Methods Mol. Med. Vol. 110, pp. 39-48 (2005). Statistical significance was assessed with two-tailed paired Student test. Deviations of >15% as compared to the negative water control with p values below 0.05 were considered statistically significant.

[2] = tested on: COL15A1; experiment: Collagen gene expression in adult human dermal fibroblasts, PCR array; type: cell-based; conditions: HDF, 24 hours
Method: (§2) Using adult human dermal fibroblasts (Cell Applications, San Diego, Calif.) (“HDF”), the effectiveness of three chlorophyllin materials—Isochlorin E4 Disodium (“E4”); Sodium Copper Chlorophyllin C3999 (“C3999”); and Chlorophyllin Sodium Copper Salt (“CSCS”)—are assessed for the ability to positively effect the differential expression of at least one of the following three collagen genes—COL15A1; COL1A1; and COL5A1. After cell viability tests, the effect of 2 μg/ml E4, 10 μg/ml CSCS, and 10 μg/ml C3999 on adult human dermal fibroblasts (100,000 cells/well) on gene expression were evaluated using PCR arrays.
(§3) HDF cells were incubated for 24 hours in a 12-well plate at a concentration of 100,000 cells/well in Dulbecco's Modified Eagle Medium (DMEM) with 5% Fetal Bovine Serum (FBS). The three test materials were added to the wells, incubated for 24 hours. […] RNA was extracted and purified with NucleoSpin RNA II kit from Machery-Nagel (Bethlehem, Pa.). Purified total RNA was analyzed at 230 nm, 260 nm and 280 nm with Agilent HP-8452A diode array spectrophotometer. The concentration of RNA was equalized across the samples and the expression of genes of interest was measured by real-time quantitative PCR with BioRad iCycler iQ Detection System using Human Extracellular Matrix & Adhesion Molecules PCR array PAHS-13ZA from Qiagen (formerly SA Biosciences, Frederick, Md.). Reactions were performed with 1st strand synthesis kit, SYBR Green master mix and PCR setup parameters from Qiagen. Results were normalized to housekeeping genes with the RT2 Profiler PCR Array Data Analysis version 3.5 software
(§4) Genes were considered differentially expressed if the level of expression was detected in less than 30 cycles, and modulation was 1.5 fold or higher.

[3] = tested on: COL1A1; experiment: as above; type: cell-based; conditions: HDF, 24 hours
Method: as §2, §3, §4

[4] = tested on: COL5A1; experiment: as above; type: cell-based; conditions: HDF, 24 hours
Method: as §2, §3, §4

[5] = tested on: HDF; experiment: Long term HDF viability, MTT assay; type: cell-based, human; conditions: long-term incubation, 1 μg/mL
Method: The effect of long-term incubation of HDF with E4 is assessed by MTT, a colorimetric assay for assessing cell metabolic activity.

[6] = tested on: adult human dermal fibroblasts; experiment: Cell proliferation, sulforhodamine B staining; type: cell-based; conditions: 4 days, vs water
Method: Adult human dermal fibroblasts (Cell Applications, San Diego, Calif.) were plated in DMEM without phenyl red supplemented with 5% FBS and 1% penicillin/streptomycin (PS) at a concentration of 8,000 cells/well. Test materials, which were stored at 4° C. until dissolved at 20 mg/ml in ddH2O, were added the next day on attached exponentially-growing cells. Negative and positive controls were, respectively, type I sterile water and L-Ascorbic acid 2-phosphate sesquimagnesium salt (“MAP”) (Sigma-Aldrich).
as §1

[7] = tested on: Vitrase injectable sterile hyaluronidase; experiment: Anti-hyaluronidase activity: viscosity of 1% HA before and after addition of Vitrase; type: biochemical, Ovine
Method: In order to assess the anti-hyaluronidase activity of the CHLcu stabilizing agent, 40 units (0.2 mL) of Vitrase® injectable sterile hyaluronidase solution (Ovine, 200 USP Units/mL) is added to each of four 1% HA samples that have been stored at 25° C. for six weeks with (a) no CHLCu; (b) 50 ppm CHLCu; (c) 100 ppm CHLCu; and (d) 250 ppm CHLCu). Anti-hyaluronidase activity is measured by comparing the viscosity of the test samples before and after addition of Vitrase®.
A product containing 1% HA (Hycoat® Sterile Wound Management Solution; Hyaluronate Sodium, Solution 20 mg/2 mL; average molecular weight 1.0-1.3 million Daltons) and 100 mcg/mL CHLCu was combined with 40 units (0.2 mL) of Vitrase® injectable sterile hyaluronidase solution (Ovine, 200 USP Units/mL) and stored at 25° C. for 30 minutes. The viscosity of the combined solution of sodium HA, CHLCu, and Vitrase® composition was seen to drop from 450.6 cps to 161.8 cps, or 35.9% of initial viscosity.
By way of comparison, the viscosity of the same 1% HA solution without CHLCu was measured, and then exposed to 40 units of the same Vitrase. After 30 minutes of Vitrase® contact, the 1% HA solution underwent a viscosity change from 516.2 cps to 43.69 cps or only 8.5% of the initial HA viscosity.

[8] = Viscosity of HA solution on storage at 25, 40 and 50° C. (cone-plate viscometer); type: physicochemical
Method: Viscosity measurements are made of vials of sterile, injectable grade, high molecular weight 1% sodium hyaluronate solution (Hycoat® Sterile Wound Management Solution; Hyaluronate Sodium, Solution 20 mg/2 mL; avg. molecular weight 1.0-1.3 million Daltons; supplied by Hymed Group, Bethlehem, Pa.) containing Chlorophyllin Copper Complex Sodium at varying concentrations as summarized in the table below. Preferably, dissolved and atmospheric oxygen is purged from the HA solution by displacing the headspace in the vial with Nitrogen or Argon.
Sodium copper chlorophyllin complex (disodium copper isochlorin e4 minimum content of 25% based on dry weight of complex; supplied by Frontier Scientific, Logan, Utah) is added to the 1% HA test solutions (i.e., 2 mL Hycoat® described above) as follows: 1 gram of CHLcu is added to 99 grams of distilled water, heated to 50° C., mixed for 30 minutes with a magnetic stirrer, and then cooled to room temperature. The specified concentration of CHLCu solution is drawn into a syringe through a 0.45u syringe filter and added to the sterile vial of 1% HA solution under a laminar flow hood. For example, in order to prepare a 1% HA solution containing 100 ppm of CHLcu in the final HA solution 20.5 microliters (0.0205 mL) of the 1% CHLCu solution is injected into the vial of 2 mL of sterile HA solution.
Each of the 2 mL test samples (with and without CHLcu) are stored at 25° C., 40° C., and 50° C. for up to eight weeks. Viscosity measurements are taken at baseline and at 1, 2, 4, 6 and 8 weeks after storage at the three temperatures.
0.5 mL of the test sample is then withdrawn from each vial, causing a temporary shear in the sample viscosity.
All samples (1% HA+CHLCu) are equilibrated prior to viscosity measurement. […]
Each withdrawn sample is allowed to further equilibrate for five additional minutes before taking viscosity measurements. Viscosity is preferably measured at 2 rpm with a cone-plate viscometer (e.g., Brookfield LVD-II Pro Cone/Plate viscometer; CPE-51 spindle from Brookfield Engineering Laboratories, Inc. Middleboro, Mass.).

[9] = 1% HA (Hycoat) + 100 mcg/mL CHLCu, 40 units Vitrase, 25° C., 30 minutes

Row | Substance | % CTRL (COL-I) ([1]; 5 μg/mL) | % CTRL (COL-I) ([1]; 10 μg/mL) | % CTRL (Cell # Standardized) ([1]; 5 μg/mL) | % CTRL (Cell # Standardized) ([1]; 10 μg/mL) | Cell # Standardized ([1]; 0.25 ug/ml) | Cell # Standardized ([1]; 1 μg/ml) | Cell # Standardized ([1]; 2 μg/ml) | Cell # Standardized ([1]; 5 μg/ml) | % CTRL (Cell #) ([6]; 5 μg/mL) | % CTRL (Cell #) ([6]; 10 μg/mL) | % CTRL (COL-I) ([1]; 20 μg/mL) | % CTRL (Cell # Standardized) ([1]; 20 μg/mL) | COL15A1 expression (modulation) ([2]; 10 μg/ml) | COL1A1 expression (modulation) ([3]; 10 μg/ml) | COL5A1 expression (modulation) ([4]; 10 μg/ml) | % CTRL (Cell #) ([6]; 20 μg/mL) | other results
1 | Isochlorin E4 Disodium | 94 % CTRL | 90 % CTRL | 115 % CTRL | 111 % CTRL | 88 | 89 | 113 | 101 | 81 % CTRL | 80 % CTRL |  |  |  |  |  |  | % CTRL (COL-I) ([1]; 2 μg/mL): 120 % CTRL; % CTRL (Cell # Standardized) ([1]; 2 μg/mL): 133 % CTRL; COL15A1 expression (modulation) ([2]; 2 μg/ml): 1.2 fold; COL1A1 expression (modulation) ([3]; 2 μg/ml): 1.2 fold; COL5A1 expression (modulation) ([4]; 2 μg/ml): 1.5 fold; HDF cell metabolic activity (MTT) [5]: unaffected; % CTRL (Cell #) ([6]; 2 μg/mL): 89 % CTRL
2 | Sodium Copper Chlorophyllin C3999 | 97 % CTRL | 110 % CTRL | 101 % CTRL | 118 % CTRL |  |  |  |  | 95 % CTRL | 92 % CTRL | 121 % CTRL | 145 % CTRL | 1.5 fold | 1.2 fold | 1.3 fold | 83 % CTRL | 
3 | L-Ascorbic acid 2-phosphate sesquimagnesium salt [MAP, reference compound] |  |  |  |  |  |  |  |  |  |  |  |  |  |  |  |  | % CTRL (Cell #) ([6]; 50 μg/mL): 111 % CTRL; % CTRL (Cell #) ([6]; 100 μg/mL): 100 % CTRL
4 | Chlorophyllin Copper Complex Sodium [CHLcu] |  |  |  |  |  |  |  |  |  |  |  |  |  |  |  |  | viscosity before Vitrase ([7]; 1% HA (Hycoat) + 100 mcg/mL CHLCu): 450.6 cps; % of initial viscosity after Vitrase [7, 9]: 35.9%; viscosity after Vitrase [7, 9]: 161.8 cps; loss of viscosity when challenged with hyaluronidase ([7]; product containing HA (or modified HA) and CHLCu): reduced loss of viscosity; viscosity change compared with samples not containing CHLCu ([8]; 1% HA, 25, 40, 50° C., up to eight weeks): less of a viscosity change; viscosity deviation from baseline after 8 weeks of storage ([8]; HA product stored with CHLcu about 50 to about 250 ppm, 40° C.): ≤ 5%; viscosity increase ([8]; HA product stored with CHLcu about 50 to about 250 ppm, 40° C., about 8 weeks): up to 25%
5 | Chlorophyllin Sodium Copper Salt [CSCS] | 95 % CTRL | 85 % CTRL | 99 % CTRL | 96 % CTRL | 97 | 96 | 114 | 110 | 95 % CTRL | 87 % CTRL | 84 % CTRL | 94 % CTRL | 1.2 fold | 1.5 fold | 1.7 fold | 88 % CTRL | 
